Reference: ChEMBL document CHEMBL1201862, “PubChem BioAssay data set” (2004)
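Exposure lasted 48 hours, with cells grown in 96-well plates and compounds tested at five concentrations. At the GI50, growth is halved.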 The source made the active and inactive calls. Rule as the data show it: active = GI50 up to about 1.1 µM and inactive = higher.

What was measured:
Assay in all cases: NCI-60 cell line screen, 48 h
MOLT-4 = system: MOLT-4
HL-60 = system: HL-60
NCI-H460 = system: NCI-H460
SK-MEL-28 = system: SK-MEL-28
SNB-19 = system: SNB-19
T47D = system: T47D
MCF7 = system: MCF7
Hs-578T = system: Hs-578T
BT-549 = system: BT-549
TK-10 = system: TK-10
EKVX = system: EKVX
SK-MEL-5 = system: SK-MEL-5
A549 = system: A549
SR = system: SR
DU-145 = system: DU-145
RXF 393 = system: RXF 393
U-251 = system: U-251
MDA-MB-231 = system: MDA-MB-231
KM12 = system: KM12
LOX IMVI = system: LOX IMVI

SMILES	GI50 (MOLT-4)	GI50 (HL-60)	GI50 (NCI-H460)	GI50 (SK-MEL-28)	GI50 (SNB-19)	GI50 (T47D)	GI50 (MCF7)	GI50 (Hs-578T)	GI50 (BT-549)	GI50 (TK-10)	GI50 (EKVX)	GI50 (SK-MEL-5)	GI50 (A549)	GI50 (SR)	GI50 (DU-145)	GI50 (RXF 393)	GI50 (U-251)	GI50 (MDA-MB-231)	GI50 (KM12)	GI50 (LOX IMVI)
CC(/C=C/C=C\C=C\C=C(/C)C(=O)NC(C)CO)=C\C(C)C(O)/C(C)=C/C(C)CCc1ccccc1 (configuration not stated)	7.46 µM (inactive)	5.02 µM (inactive)	3.85 µM (inactive)	12.9 µM (inactive)	15.3 µM (inactive)	3.61 µM (inactive)	1.84 µM (inactive)	19.3 µM (inactive)	15.2 µM (inactive)	14 µM (inactive)	4.73 µM (inactive)	0.198 µM (active)	4.05 µM (inactive)	1.14 µM (inactive)	13.8 µM (inactive)	12.9 µM (inactive)	14.9 µM (inactive)	14.6 µM (inactive)	2.32 µM (inactive)	–
Cn1cc2c3ccccc3nc-2c2ccccc21 [ISOCRYPTOLEPINE]	0.421 µM (active)	2.04 µM (inactive)	1.44 µM (inactive)	2.38 µM (inactive)	2.96 µM (inactive)	2.07 µM (inactive)	2.67 µM (inactive)	2.3 µM (inactive)	3.26 µM (inactive)	3.93 µM (inactive)	–	1.7 µM (inactive)	2.17 µM (inactive)	0.397 µM (active)	2.31 µM (inactive)	–	2.42 µM (inactive)	2.35 µM (inactive)	2.08 µM (inactive)	1.77 µM (inactive)
CSC1=NN=C(SC)NN1	0.027 µM (active)	0.0369 µM (active)	0.196 µM (active)	0.186 µM (active)	0.191 µM (active)	0.142 µM (active)	0.201 µM (active)	0.161 µM (active)	0.151 µM (active)	0.213 µM (active)	0.186 µM (active)	0.182 µM (active)	0.204 µM (active)	0.0204 µM (active)	0.202 µM (active)	–	0.18 µM (active)	0.22 µM (active)	0.192 µM (active)	0.15 µM (active)
O=C1CSC(c2ccccc2[N+](=O)[O-])N1c1ccc(-c2ccc(-n3c(-c4ccccc4)nc4ccccc4c3=O)cc2)cc1 (configuration not stated)	43.2 µM (inactive)	> 100 µM (inactive)	> 100 µM (inactive)	> 100 µM (inactive)	> 100 µM (inactive)	29.1 µM (inactive)	80.5 µM (inactive)	> 100 µM (inactive)	> 100 µM (inactive)	> 100 µM (inactive)	> 100 µM (inactive)	42 µM (inactive)	> 100 µM (inactive)	44.6 µM (inactive)	> 100 µM (inactive)	–	42.6 µM (inactive)	> 100 µM (inactive)	80 µM (inactive)	54 µM (inactive)
[N-]=[N+]=Nc1cc(=O)[nH]nc1-c1ccccc1	> 100 µM (inactive)	> 100 µM (inactive)	> 100 µM (inactive)	> 100 µM (inactive)	–	> 100 µM (inactive)	> 100 µM (inactive)	> 100 µM (inactive)	> 100 µM (inactive)	> 100 µM (inactive)	> 100 µM (inactive)	–	> 100 µM (inactive)	> 100 µM (inactive)	> 100 µM (inactive)	> 100 µM (inactive)	> 100 µM (inactive)	> 100 µM (inactive)	> 100 µM (inactive)	> 100 µM (inactive)
COS(C)(=O)=O [METHANESULFONIC ACID METHYL ESTER]	> 2 µM (inactive)	> 2 µM (inactive)	> 2 µM (inactive)	> 2 µM (inactive)	> 2 µM (inactive)	> 2 µM (inactive)	> 2 µM (inactive)	> 2 µM (inactive)	> 2 µM (inactive)	> 2 µM (inactive)	> 2 µM (inactive)	–	> 2 µM (inactive)	> 2 µM (inactive)	> 2 µM (inactive)	> 2 µM (inactive)	> 2 µM (inactive)	> 2 µM (inactive)	> 2 µM (inactive)	> 2 µM (inactive)
COc1ccc(N2C(=O)C3c4[nH]c5cccc(Cl)c5c4C4CCC(C(C)(C)C)CC4C3C2=O)cc1 (configuration not stated)	> 100 µM (inactive)	–	> 100 µM (inactive)	> 100 µM (inactive)	41.5 µM (inactive)	> 100 µM (inactive)	> 100 µM (inactive)	21.9 µM (inactive)	> 100 µM (inactive)	> 100 µM (inactive)	> 100 µM (inactive)	> 100 µM (inactive)	> 100 µM (inactive)	8.47 µM (inactive)	> 100 µM (inactive)	–	39.2 µM (inactive)	> 100 µM (inactive)	> 100 µM (inactive)	> 100 µM (inactive)
COC(=O)[C@@H](COC(=O)/C=C/c1ccc(OC(C)=O)c(OC(C)=O)c1)NC(=O)/C=C/c1ccc(OC(C)=O)c(OC(C)=O)c1	38.5 µM (inactive)	18.7 µM (inactive)	18.5 µM (inactive)	70.8 µM (inactive)	44.5 µM (inactive)	11.1 µM (inactive)	33.9 µM (inactive)	25.2 µM (inactive)	60.8 µM (inactive)	–	16.3 µM (inactive)	13.4 µM (inactive)	42.8 µM (inactive)	8.49 µM (inactive)	22.8 µM (inactive)	35.1 µM (inactive)	33.7 µM (inactive)	22.6 µM (inactive)	25.1 µM (inactive)	11.3 µM (inactive)
COc1ccc(C2SCC(=O)N2c2ccc(-c3ccc(-n4c(-c5ccccc5)nc5ccccc5c4=O)cc3)cc2)cc1 (configuration not stated)	31.8 µM (inactive)	54.3 µM (inactive)	34.4 µM (inactive)	> 100 µM (inactive)	> 100 µM (inactive)	21 µM (inactive)	26.1 µM (inactive)	25.9 µM (inactive)	22.8 µM (inactive)	45.2 µM (inactive)	> 100 µM (inactive)	26.9 µM (inactive)	> 100 µM (inactive)	19.5 µM (inactive)	42 µM (inactive)	–	48.5 µM (inactive)	54.6 µM (inactive)	21.1 µM (inactive)	> 100 µM (inactive)
NS(=O)(=O)c1ccc2c(c1)OCCOCCOCCOCCO2	> 100 µM (inactive)	> 100 µM (inactive)	> 100 µM (inactive)	> 100 µM (inactive)	> 100 µM (inactive)	> 100 µM (inactive)	> 100 µM (inactive)	> 100 µM (inactive)	> 100 µM (inactive)	> 100 µM (inactive)	> 100 µM (inactive)	> 100 µM (inactive)	> 100 µM (inactive)	> 100 µM (inactive)	> 100 µM (inactive)	–	–	> 100 µM (inactive)	> 100 µM (inactive)	> 100 µM (inactive)
CCOC(=O)c1cc2c([nH]1)c(OC(C)=O)cc1c2ccn1Cc1ccccc1	> 100 µM (inactive)	> 100 µM (inactive)	> 100 µM (inactive)	> 100 µM (inactive)	> 100 µM (inactive)	> 100 µM (inactive)	> 100 µM (inactive)	> 100 µM (inactive)	> 100 µM (inactive)	–	99.5 µM (inactive)	> 100 µM (inactive)	> 100 µM (inactive)	> 100 µM (inactive)	> 100 µM (inactive)	> 100 µM (inactive)	> 100 µM (inactive)	> 100 µM (inactive)	> 100 µM (inactive)	> 100 µM (inactive)
CC1=CC(=O)N(n2c(-c3ccccc3)n[nH]c2=O)C1=O	> 100 µM (inactive)	> 100 µM (inactive)	> 100 µM (inactive)	> 100 µM (inactive)	> 100 µM (inactive)	> 100 µM (inactive)	> 100 µM (inactive)	> 100 µM (inactive)	> 100 µM (inactive)	> 100 µM (inactive)	> 100 µM (inactive)	> 100 µM (inactive)	> 100 µM (inactive)	–	> 100 µM (inactive)	> 100 µM (inactive)	> 100 µM (inactive)	> 100 µM (inactive)	> 100 µM (inactive)	> 100 µM (inactive)
C=C1C[C@@H](O)[C@@H](Br)C(C)(C)[C@@]12C=CC(=O)CC2	> 100 µM (inactive)	> 100 µM (inactive)	> 100 µM (inactive)	> 100 µM (inactive)	> 100 µM (inactive)	> 100 µM (inactive)	> 100 µM (inactive)	> 100 µM (inactive)	> 100 µM (inactive)	12.6 µM (inactive)	–	> 100 µM (inactive)	> 100 µM (inactive)	> 100 µM (inactive)	> 100 µM (inactive)	> 100 µM (inactive)	> 100 µM (inactive)	> 100 µM (inactive)	1.52 µM (inactive)	> 100 µM (inactive)
CC12CC1C(c1cccc([N+](=O)[O-])c1)(c1cccc([N+](=O)[O-])c1)N=N2 (configuration not stated)	28.3 µM (inactive)	13 µM (inactive)	27.4 µM (inactive)	22.1 µM (inactive)	32.5 µM (inactive)	25.8 µM (inactive)	35.6 µM (inactive)	21.9 µM (inactive)	18.5 µM (inactive)	27.8 µM (inactive)	37.7 µM (inactive)	26.8 µM (inactive)	54.7 µM (inactive)	19.6 µM (inactive)	24.3 µM (inactive)	–	18.7 µM (inactive)	16.5 µM (inactive)	19.6 µM (inactive)	13.2 µM (inactive)
